Results reported in patent US11365203B2, “Fluorescent dye and preparation method and use thereof” (Fluorescence Diagnosis (shanghai) Biotech Company Ltd., priority 2016, dated 2022).

Assays:
Assay type in all cases: physicochemical
[1] = Fluorescence emission in ethylene glycol-glycerol mixed solutions of different viscosities; settings: 1×10^−5 M, 16.4-946.0 cp; for Emission wavelength: excited at 480 nm; for Viscosity response of fluorescence intensity: log intensity vs log viscosity linear
Experimental: Molecular Rotors 1, 2, 3, 22, 57, and 63 were added to ethylene glycol-glycerol mixed solutions having viscosities of 16.4 cp, 29.8 cp, 64.5 cp, 143.5 cp, 377.0 cp, and 946.0 cp to prepare a solution with a final concentration of 1×10^−5 M. The solution was excited at 480 nm. The fluorescence emission spectra at different viscosities were shown in FIGS. 1, 4, 7, 10, 13, and 16. Emission wavelengths of the molecular rotors were 555 nm, 590 nm, 610 nm, 570 nm, 559 nm, and 675 nm, respectively.

[2] = Fluorescence emission intensity in dichloromethane and methanol (polarity response); settings: 1×10^−5 M; dichloromethane vs methanol; 25° C.
Experimental: Molecular Rotors 1, 2, 3, 22, 57, 63 were added to dichloromethane and methanol respectively to prepare a solution with a final concentration of 1×10^−5 M. Then, the solution was excited individually by excitation wavelengths of 480 nm, 480 nm and 500 nm at 25° C. to detect their fluorescence emission intensities in two different polar solvents.

[3] = Fluorescence emission spectra of molecular rotors in glycerin and methanol; settings: for Maximum Emission Wavelength: 1×10^−5 M in glycerin and methanol, excited at maximum excitation wavelength of each dye; for Fluorescence Intensity Ratios in Glycerol/Methanol: 1×10^−5 M, glycerol vs methanol solution
Experimental: The fluorescent dyes (molecular rotors) prepared in Examples 1-68 were separately dissolved in dimethyl sulfoxide to prepare respectively a mother liquor having a concentration of 1×10^−2 M, and each of the mother liquors was added individually to glycerin and methanol, and mixed uniformly, thereby solutions of a final concentration of 1×10^−5 M were prepared individually. According to the different fluorescent dyes, the fluorescence emission spectra of the fluorescent dyes were detected with the maximum excitation wavelengths of respective fluorescent dyes successively under the same conditions.

CN(C)c1cc2c(s1)c1sc(/C=C(\C#N)C(=O)OC(C)(C)C)cc1n2C [Molecular Rotor 63]
Emission wavelength [1]: 675 nm
Viscosity response of fluorescence intensity [1]: sensitive to viscosity
Polarity response of fluorescence intensity [2]: insensitive to the polarity change
Maximum Emission Wavelength [3]: 675 nm
Fluorescence Intensity Ratios in Glycerol/Methanol [3]: 516

CN(C)c1ccc2cc(/C=C(\C#N)C(=O)OC(C)(C)C)sc2c1 [Molecular Rotor 22]
Emission wavelength [1]: 570 nm
Viscosity response of fluorescence intensity [1]: sensitive to viscosity
Polarity response of fluorescence intensity [2]: insensitive to the polarity change
Maximum Emission Wavelength [3]: 570 nm
Fluorescence Intensity Ratios in Glycerol/Methanol [3]: 989

CN(CCO)c1cc2sc(/C=C(\C#N)c3nc4ccccc4s3)cc2s1 [Molecular Rotor 3, 2-[2-cyano-2-(1,3-benzothiazol-2-yl)-vinyl]-5-(N-methyl-N-hydroxyethyl)-thieno[3,2,b]thiophene]
Emission wavelength [1]: 610 nm
Viscosity response of fluorescence intensity [1]: sensitive to viscosity
Polarity response of fluorescence intensity [2]: insensitive to the polarity change
Maximum Emission Wavelength [3]: 610 nm
Fluorescence Intensity Ratios in Glycerol/Methanol [3]: 1455

CNc1cc2sc(/C=C(\C#N)C(=O)O)cc2s1 [Molecular Rotor 5, 6-(2-cyano-2-formic acid)-2-methylamino-thieno[3,2,b]thiophene]
Maximum Emission Wavelength [3]: 555 nm
Fluorescence Intensity Ratios in Glycerol/Methanol [3]: 1980

COCCOCCOCCOCCOCCN(C)c1cc2cc3cc(/C=C(\C#N)c4nc5ccccc5o4)sc3cc2s1 [Molecular Rotor 52]
Maximum Emission Wavelength [3]: 578 nm
Fluorescence Intensity Ratios in Glycerol/Methanol [3]: 680

COCCNC(=O)/C(C#N)=C/c1cc2cc3cc(N4CCOCC4)sc3cc2s1 [Molecular Rotor 55]
Maximum Emission Wavelength [3]: 562 nm
Fluorescence Intensity Ratios in Glycerol/Methanol [3]: 466

CN(CCO)c1cc2c(s1)-c1sc(/C=C(\C#N)c3nc4ccccc4s3)cc1[Si]21CCC1 [Molecular Rotor 62]
Maximum Emission Wavelength [3]: 715 nm
Fluorescence Intensity Ratios in Glycerol/Methanol [3]: 759

CC1(C)OC(=O)C(C#N)=C1c1cc2sc(O)cc2s1 [Molecular Rotor 10]
Maximum Emission Wavelength [3]: 520 nm
Fluorescence Intensity Ratios in Glycerol/Methanol [3]: 851

CN(CCO)c1cc2cc3cc(C=C(C#N)C#N)sc3cc2s1 [Molecular Rotor 48]
Maximum Emission Wavelength [3]: 562 nm
Fluorescence Intensity Ratios in Glycerol/Methanol [3]: 608

CCCCN(CCO)c1ccc2c(c1)sc1cc(/C=C3/N=C(c4ccccc4)N(C)C3=O)sc12 [Molecular Rotor 40]
Maximum Emission Wavelength [3]: 659 nm
Fluorescence Intensity Ratios in Glycerol/Methanol [3]: 652

COCCOCCOCCOCCOCCN(C)c1cc2sc(/C=C3\N=C(C)N(C)C3=O)cc2s1 [Molecular Rotor 6]
Maximum Emission Wavelength [3]: 585 nm
Fluorescence Intensity Ratios in Glycerol/Methanol [3]: 1453

COC(=O)/C(C#N)=C/c1cc2sc3cc(N(CC(=O)O)CC(=O)O)sc3c2s1 [Molecular Rotor 17]
Maximum Emission Wavelength [3]: 618 nm
Fluorescence Intensity Ratios in Glycerol/Methanol [3]: 888

CNc1cc2cc3cc(/C=C4/N=C(c5ccccc5)N(C)C4=O)sc3cc2s1 [Molecular Rotor 51]
Maximum Emission Wavelength [3]: 599 nm
Fluorescence Intensity Ratios in Glycerol/Methanol [3]: 535

N#C/C(=C\c1cc2ccc(N(CCO)CCO)cc2s1)c1nc2ccccc2s1 [Molecular Rotor 24]
Maximum Emission Wavelength [3]: 608 nm
Fluorescence Intensity Ratios in Glycerol/Methanol [3]: 912

CN(CCO)c1cc2c(s1)-c1sc(/C=C(\C#N)C(=O)OC(C)(C)C)cc1[Si]2(C)C [Molecular Rotor 57]
Emission wavelength [1]: 559 nm
Viscosity response of fluorescence intensity [1]: sensitive to viscosity
Polarity response of fluorescence intensity [2]: insensitive to the polarity change
Maximum Emission Wavelength [3]: 659 nm
Fluorescence Intensity Ratios in Glycerol/Methanol [3]: 884

CN(CCO)c1cc2c(s1)-c1sc(/C=C(\C#N)c3nc4ccccc4s3)cc1C2(C)C [Molecular Rotor 67]
Maximum Emission Wavelength [3]: 690 nm
Fluorescence Intensity Ratios in Glycerol/Methanol [3]: 789

C[Si]1(C)c2cc(/C=C(\C#N)C(=O)O)sc2-c2sc(N(CCO)CCO)cc21 [Molecular Rotor 58]
Maximum Emission Wavelength [3]: 656 nm
Fluorescence Intensity Ratios in Glycerol/Methanol [3]: 683

CN(CC(=O)O)c1cc2sc3cc(/C=C(\C#N)c4nc5ccccc5s4)sc3c2s1 [Molecular Rotor 13, 6-[2-cyano-2-(1,3-benzothiazol-2-yl)-vinyl]-2-N-m ethylamino-N-acetic acid-dithiophene[3,2-B:2′3′-D]thiophene]
Maximum Emission Wavelength [3]: 690 nm
Fluorescence Intensity Ratios in Glycerol/Methanol [3]: 352

CCOC(=O)/C(C#N)=C/c1cc2sc3cc(N4CCOCC4)sc3c2s1 [Molecular Rotor 21]
Maximum Emission Wavelength [3]: 620 nm
Fluorescence Intensity Ratios in Glycerol/Methanol [3]: 544

2-[2-cyano-2-(2-benzoxazole)-vinyl]-5-didecylamino-thieno[3,2,b]thiophene [Molecular Rotor 2]
Emission wavelength [1]: 590 nm
Viscosity response of fluorescence intensity [1]: sensitive to viscosity
Polarity response of fluorescence intensity [2]: insensitive to the polarity change
Maximum Emission Wavelength [3]: 590 nm
Fluorescence Intensity Ratios in Glycerol/Methanol [3]: 1183

CN(C)c1cc2sc(/C=C(\C#N)C(=O)OC(C)(C)C)cc2s1 [Molecular Rotor 1, 2-(2-cyano-2-tert-butyl formatevinyl)-5-dimethylamino-thieno[3,2,b]thiophene]
Emission wavelength [1]: 555 nm
Viscosity response of fluorescence intensity [1]: sensitive to viscosity
Polarity response of fluorescence intensity [2]: insensitive to the polarity change
Maximum Emission Wavelength [3]: 555 nm
Fluorescence Intensity Ratios in Glycerol/Methanol [3]: 790

COCCNC(=O)/C(C#N)=C/c1cc2sc(N(C)CCC#N)cc2s1 [Molecular Rotor 7]
Maximum Emission Wavelength [3]: 555 nm
Fluorescence Intensity Ratios in Glycerol/Methanol [3]: 1877

CN(C)c1cc2c(s1)-c1sc(/C=C(\C#N)C(=O)OC(C)(C)C)cc1C2(C)C [Molecular Rotor 65]
Maximum Emission Wavelength [3]: 645 nm
Fluorescence Intensity Ratios in Glycerol/Methanol [3]: 591

CN1C(=O)/C(=C\c2cc3ccc(N(C)CCOCCC(=O)O)cc3s2)N=C1c1ccccc1 [Molecular Rotor 26]
Maximum Emission Wavelength [3]: 610 nm
Fluorescence Intensity Ratios in Glycerol/Methanol [3]: 712

CCCCCCCCCCN(CCCCCCCCCC)c1cc2cc3sc(/C=C(\C#N)C(=O)OC(C)(C)C)cc3cc2s1 [Molecular Rotor 42]
Maximum Emission Wavelength [3]: 558 nm
Fluorescence Intensity Ratios in Glycerol/Methanol [3]: 924

CNc1ccc2c(c1)sc1cc(/C=C(\C#N)C(=O)O)sc12 [Molecular Rotor 37]
Maximum Emission Wavelength [3]: 627 nm
Fluorescence Intensity Ratios in Glycerol/Methanol [3]: 879

COCCOCCOCCOCCOCCN(C)c1cc2cc3sc(/C=C4/N=C(C)N(C)C4=O)cc3cc2s1 [Molecular Rotor 45]
Maximum Emission Wavelength [3]: 585 nm
Fluorescence Intensity Ratios in Glycerol/Methanol [3]: 812

CN(CCO)c1ccc2c(c1)sc1cc(/C=C(\C#N)C(=O)OC(C)(C)C)sc12 [Molecular Rotor 35]
Maximum Emission Wavelength [3]: 626 nm
Fluorescence Intensity Ratios in Glycerol/Methanol [3]: 476
